Values after ≈ are worked out from the molar mass of the structure shown. Where only a bound is given, the exact number is not on record here.

This passage reports MIC results from DBAASP.

Assay in all cases: ≥ marks a high value that may be exact or a test limit, other limits are often not marked, values filed in µg/mL are converted to µM
Assay [1] has as its system Acinetobacter baumannii MTCC 9829.
The test system of assay [2] is Alcaligenes faecalis MTCC 1937.
Assay [3] has as its system Alkalihalobacillus alcalophilus MTCC 860.
The test system of assay [4] is Bordetella bronchiseptica MTCC 6837.
The subject of assay [5] is Citrobacter freundii MTCC 1658.
The subject of assay [6] is Citrobacter koseri MTCC 1657.
Assay [7] has as its system Corynebacterium glutamicum MTCC 2679.
For assay [8], the system named is Enterococcus faecalis MTCC 439.
Assay [9] deals with Escherichia coli K12 MG1655.
In assay [10] the test system is Haemophilus influenzae MTCC 621.
Assay [11] deals with Klebsiella aerogenes MTCC 111.
For assay [12], the system named is Klebsiella oxytoca MTCC 2275.
Assay [13] has as its system Klebsiella pneumoniae MTCC 7407.
For assay [14], the system named is Pluralibacter gergoviae MTCC 3826.
Assay [15] concerns Proteus mirabilis MTCC 3158.
In assay [16] the test system is Proteus vulgaris MTCC 1771.
Assay [17] has as its system Pseudomonas aeruginosa MTCC 3542.
Assay [18] concerns Salmonella enterica MTCC 9844.
For assay [19], the system named is Salmonella enterica subsp. enterica serovar Typhimurium ATCC 14028.
The test system of assay [20] is Shigella boydii MTCC 11947.
In assay [21] the test system is Shigella flexneri MTCC 1457.
Assay [22] has as its system Staphylococcus aureus MTCC 3160.
In assay [23] the test system is Staphylococcus haemolyticus MTCC 3383.
Assay [24] has as its system Stenotrophomonas maltophilia MTCC 1890.
Assay [25] has as its system Vibrio cholerae MTCC 3904.
For assay [26], the system named is Escherichia coli ATCC 8739.
For assay [27], the system named is Pseudomonas aeruginosa H1001.
Assay [28] has as its system Achromobacter xylosoxidans.
The subject of another assay is Pseudomonas aeruginosa.
The test system of assay [29] is Stenotrophomonas maltophilia.

Consider `CC[C@H](C)[C@H](NC(=O)[C@H](CCCCN)NC(=O)[C@H](Cc1ccccc1)NC(=O)[C@H](C)NC(=O)[C@H](C)NC(=O)[C@H](CCCCN)NC(=O)[C@@H](NC(=O)[C@H](CC(C)C)NC(=O)CNC(=O)[C@H](CCCCN)NC(=O)[C@H](Cc1c[nH]c2ccccc12)NC(=O)[C@@H](N)Cc1ccccc1)C(C)C)C(=O)N[C@H](C(=O)N[C@@H](Cc1cnc[nH]1)C(=O)N[C@@H](C)C(=O)NCC(=O)N[C@@H](CO)C(=O)O)C(C)C` [FWKGLVKAAFKIVHAGS], for which the MIC in [1] is 8.61 µM (≈ 16 µg/mL); in assay [2], ≥ 68.8 µM; in [3] it was 8.61 µM (≈ 16 µg/mL); in assay [4], 4.3 µM (≈ 8 µg/mL); in assay [5], ≥ 68.8 µM; in [6] it was ≥ 34.4 µM. In addition, the MIC in assay [7] is 1.08 µM (≈ 2 µg/mL); in assay [8], ≥ 68.8 µM; in assay [9], ≥ 34.4 µM; in assay [10], ≥ 68.8 µM; in assay [11], ≥ 68.8 µM; in assay [12], ≥ 34.4 µM. Further, the MIC in [13], in assay [14], in assay [15], in assay [16], in assay [17] and in [18] was ≥ 68.8 µM throughout. Further, the MIC in assay [19] was > 68.8 µM; in assay [20], ≥ 68.8 µM; in [21], ≥ 68.8 µM; in [22], ≥ 68.8 µM; in assay [23], 8.61 µM (≈ 16 µg/mL); in [24], ≥ 68.8 µM. Moreover, the MIC in assay [25] is ≥ 68.8 µM.
Take `CC[C@H](C)[C@H](NC(=O)[C@H](C)NC(=O)[C@H](CC(N)=O)NC(=O)[C@H](CCSC)NC(=O)[C@@H]1CCCN1)C(=O)N[C@@H](CCCCN)C(=O)N[C@@H](CC(C)C)C(=O)N[C@@H](CC(C)C)C(=O)N[C@@H](CS)C(=O)N[C@@H](CCCN=C(N)N)C(=O)N[C@H](C(=O)N[C@@H](Cc1cnc[nH]1)C(=O)N[C@@H](CCCCN)C(=O)N[C@@H](CCCCN)C(=O)N[C@H](C(=O)N[C@@H](C)C(=O)N[C@H](C(=O)N[C@@H](CO)C(=O)N[C@H](C(=O)O)C(C)C)[C@@H](C)CC)[C@@H](C)CC)C(C)C` [PMNAIKLLCRVHKKIAISV]: the figures for the MIC in assay [26] and in assay [27] were ≥ 60 µM and 5.86 µM (≈ 12.5 µg/mL), respectively.
With `CC[C@H](C)[C@H](NC(=O)[C@H](CCCCN)NC(=O)[C@H](CCC(N)=O)NC(=O)CNC(=O)[C@@H](NC(=O)[C@H](CCCCN)NC(=O)[C@H](CCCCN)NC(=O)[C@H](CC(C)C)NC(=O)[C@H](CCCCN)NC(=O)[C@H](CCC(=O)O)NC(=O)[C@H](CCCCN)NC(=O)[C@@H](NC(=O)[C@H](CCCCN)NC(=O)[C@H](CC(N)=O)NC(=O)[C@H](CCCN=C(N)N)NC(=O)[C@H](Cc1ccccc1)NC(=O)[C@H](CCCCN)NC(=O)[C@H](CCCN=C(N)N)NC(=O)[C@H](CC(C)C)NC(=O)[C@H](CCCN=C(N)N)NC(=O)[C@H](CCCCN)NC(=O)[C@@H](N)CCCN=C(N)N)[C@@H](C)CC)[C@@H](C)CC)C(=O)O` [RKRLRKFRNKIKEKLKKIGQKI], the MIC in [28] came to 2.01 µM (≈ 5.66 µg/mL); in the assay with Pseudomonas aeruginosa, 1.42 µM (≈ 4 µg/mL); in assay [29], 4.03 µM (≈ 11.3 µg/mL).
In turn, `CC(C)C[C@H](NC(=O)[C@H](Cc1ccc(O)cc1)NC(=O)[C@@H]1CCCN1C(=O)[C@@H]1CCCN1C(=O)[C@H](CCCCN)NC(=O)[C@H](CC(=O)O)NC(=O)[C@@H](N)C(C)C)C(=O)N1CCC[C@H]1C(=O)N[C@@H](CCCN=C(N)N)C(=O)N1CCC[C@H]1C(=O)N[C@@H](CCCN=C(N)N)C(=O)N1CCC[C@H]1C(=O)N1CCC[C@H]1C(=O)N[C@@H](CCCN=C(N)N)C(=O)N[C@@H](CCCN=C(N)N)C(=O)N[C@@H](Cc1ccccc1)C(=O)N[C@@H](Cc1ccc(O)cc1)C(=O)N[C@@H](CC(N)=O)C(=O)N[C@@H](CCCN=C(N)N)C(=O)NCC(=O)O` [VDKPPYLPRPRPPRRFYNRG] returned an MIC in [27] of 0.105 µM (≈ 0.26 µg/mL).
Turning to `CC[C@H](C)[C@H](NC(=O)[C@H](Cc1cnc[nH]1)NC(=O)[C@H](Cc1cnc[nH]1)NC(=O)[C@@H](NC(=O)[C@@H](NC(=O)[C@H](CCCCN)NC(=O)[C@@H](NC(=O)[C@@H](NC(=O)[C@H](CCCCN)NC(=O)[C@H](Cc1cnc[nH]1)NC(=O)[C@H](Cc1ccccc1)NC(=O)[C@H](C)NC(=O)[C@H](CO)NC(=O)[C@H](CC(C)C)NC(=O)[C@@H](N)C(C)C)C(C)C)[C@@H](C)CC)[C@@H](C)CC)[C@@H](C)CC)C(=O)N[C@@H](CO)C(=O)N[C@@H](Cc1cnc[nH]1)C(=O)N[C@@H](Cc1ccccc1)C(=O)O` [VLSAFHKVIKIIHHISHF], the MIC in assay [1] is 7.52 µM (≈ 16 µg/mL); in assay [2] it was ≥ 60.2 µM; in assay [3] it was 15 µM (≈ 32 µg/mL); in [4], 1.88 µM (≈ 4 µg/mL); in assay [5], ≥ 60.2 µM; in assay [6], 7.52 µM (≈ 16 µg/mL). Further, the MIC in assay [7] was 1.88 µM (≈ 4 µg/mL); in [8], ≥ 60.2 µM; in assay [9], 15 µM (≈ 32 µg/mL); in assay [10], 3.76 µM (≈ 8 µg/mL); in assay [11], ≥ 60.2 µM; in assay [12], ≥ 60.2 µM. Besides, the MIC was ≥ 60.2 µM in assay [13]; ≥ 60.2 µM in [14]; ≥ 60.2 µM in [15]; ≥ 60.2 µM in assay [16]; ≥ 60.2 µM in assay [17]; 15 µM (≈ 32 µg/mL) in [18]. For the same molecule, the MIC is > 60.2 µM in [19]; 7.52 µM (≈ 16 µg/mL) in [20]; 3.76 µM (≈ 8 µg/mL) in [21]; ≥ 60.2 µM in assay [22]; 15 µM (≈ 32 µg/mL) in assay [23]; ≥ 60.2 µM in assay [24]. The MIC in assay [25] was ≥ 60.2 µM.
